“And” between values parts separate entries of the source, which are not always exact repeats. Equal values may be shown once. Read-outs that look alike come from different tables or passages of the source.
Columns and labels:
[1] = system: carrageenan-induced acute paw inflammation; assay: Paw swelling test induced by carrageenan in rats; format: in vivo, Sprague-Dawley rats; parameters: paw volume: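 right hind paw volume measured with a plethysmometer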; conditions: listed as From I; for paw volume / paw edema: mean±SD of 6 rats; for edema inhibition: versus model group
Method: Rats were divided into 11 groups of six animals each (sex in half): the normal group, the model group, indomethacin group (1 mg/kg), and form I, II, III, IV groups (each form set 10 mg/kg and 20 mg/kg groups, respectively). Indomethacin and CK were ground and suspended in 0.5% CMC-Na solution. […] The same volume of saline was injected into the normal group. […] Paw edema and inhibitory rate were calculated as the following formula, and the differences among groups were compared with the t-test. Paw edema (%) = (Vn − V0)/V0 × 100%. Vn: paw volume at different time intervals after carrageenan injection. V0: paw volume before carrageenan injection. Inhibitory rate (%) = (Em − Ee)/Em × 100%. Em: paw edema of the model group. Ee: paw edema of the experimental group.

[2] = DSC thermal analysis of CK polymorphs; format: physicochemical; conditions: 20 K/min from 20 to 400 °C, dry nitrogen flow
Method: DSC measurements were performed on a DSC204 Phoenix calorimeter (NETZSCH, Selb, Germany) with a heating rate of 20 K/min from 20 to 400 °C. The dry nitrogen flow was about 50 mL/min. Data were analyzed using NETZSCH analysis software.

[3] = Pharmacokinetics after oral administration of CK polymorphs in rats (20 mg/kg); format: in vivo, Sprague-Dawley rats; conditions: p.o. 20 mg/kg, individual rats 1-3
Method: All samples were analyzed with a triple quadrupole LC-MS/MS (API 4000 LC-MS/MS, AB Sciex, Framingham, MA, USA) coupled with an Agilent 1200 HPLC system (Agilent Technologies, Palo Alto, CA, USA). The MS was equipped with an electrospray system (ESI). The N2 gas temperature and ion-spray voltage were set to 550 °C and 4.5 kV, respectively. CK was measured in multiple reaction monitoring (MRM) mode using a negative electrospray ionization source at m/z 667.4 → 621.2 for CK (CID 25.6 v) and m/z 271.2 → 228.8 for internal standard (IS, (E)-5-(4-fluorostyryl)-2-isopropylbenzene-1,3-diol, Welichem Biotech Inc., Wayburne Drive Burnaby, BC, Canada) (CID 28.3 v) with a dwell time of 0.1 s.
Rats were divided randomly into 5 groups of six animals each (sex in half) and given 7 days to acclimatize to the facility before the experiments began. The four forms of CK were suspended in 0.5% sodium carboxymethyl cellulose (CMC-Na) solution and orally administered to rats at a dose of 20 mg/kg. A CK solution in a mixed solvent of dimethyl sulfoxide (DMSO)/castor oil/physiologic saline (3:5:92, v/v) was intravenously administered to the remaining group via the tail vein at a dose of 10 mg/kg. Blood samples were collected by retro-orbital puncture at the following times: 0.167, 0.333, 0.667, 1, 2, 3, 4, 6, 9, 12, and 24 h for the oral administration, and at 0.0083, 0.05, 0.133, 0.25, 0.5, 1, 2, 4, 6, and 9 h for the intravenous administration. Plasma samples were obtained by centrifuging a heparinized blood tube at 4000 rpm for 5 min and then stored at −70 °C until analysis.
The procedure for drug extraction from plasma samples was as follows: 0.2 mL acetonitrile, 0.2 mL plasma sample, and 10 μL IS (1 µg/mL) were added into a 1.5 mL Eppendorf-type tube. This mixture was vortexed for 1 min and then treated with 0.8 mL of methyl tert-butyl ether (MTBE) to precipitate the plasma proteins. After a mechanical vortex for 1 min and subsequent centrifugation (4000 rpm, 5 min), 0.8 mL of the supernatant was transferred and blow-dried with N2 at 40 °C in a water bath. Finally, the residue was dissolved in 120 μL of mobile phase, and then 10 μL was subjected to HPLC for analysis. […] Intra- and inter-day precision and accuracy never exceeded 15% by analyzing six replicate samples.
The CK pharmacokinetic parameters in rats, including the area under the curve (AUC(0–t) and AUC(0–∞)), mean residence time (MRT(0–t) and MRT(0–∞)), maximum concentration (Cmax), time to maximum concentration (Tmax), half-life (t1/2), apparent distribution volume (V), and total plasma clearance (CL), were derived from plasma concentration-time curves by using non-compartmental analysis (NCA) with DAS 2.0 software (Drug And Statistics, Mathematical Pharmacology Professional Committee of China, Shanghai, China). The absolute bioavailability (Fabs) was calculated from the dose-adjusted ratio of AUCp.o. to AUCi.v.. One-way analysis of variance (ANOVA) by SPSS 11.5 (SPSS Inc., Chicago, IL, USA) was conducted to compare the primary PK parameters.

[4] = as above; format: in vivo, Sprague-Dawley rats; conditions: 20 mg/kg; for bioavailability: p.o. 20 mg/kg vs i.v. 10 mg/kg, dose-adjusted AUC ratio, read-out: Fabs (absolute bioavailability); for half-life: read-out: t1/2z (converted); for Vd/F: read-out: Vz/F
[5] = 10 mg/kg p.o. qd 3 days, 3h after carrageenan
[6] = 10 mg/kg p.o. qd 3 days, 4h after carrageenan
[7] = 10 mg/kg p.o. qd 3 days, 5h after carrageenan
[8] = 10 mg/kg p.o. qd 3 days, 6h after carrageenan
[9] = 20 mg/kg p.o. qd 3 days, 3h after carrageenan
[10] = 20 mg/kg p.o. qd 3 days, 4h after carrageenan
[11] = 20 mg/kg p.o. qd 3 days, 5h after carrageenan
[12] = 20 mg/kg p.o. qd 3 days, 6h after carrageenan
[13] = female rats, p.o. 20 mg/kg, mean ± SD (n = 3)
[14] = female, Sprague-Dawley, rat, plasma, po, female rats, p.o. 20 mg/kg, mean ± SD (n = 3)
[15] = male rats, p.o. 20 mg/kg, mean ± SD (n = 3)
[16] = male, Sprague-Dawley, rat, plasma, po, male rats, p.o. 20 mg/kg, mean ± SD (n = 3)

Compound `CC(C)=CCCC(C)(OC1OC(CO)C(O)C(O)C1O)C1CCC2(C)C1C(O)CC1C3(C)CCC(O)C(C)(C)C3CCC12C` [Form I, 20-O-β-D-glucopyranosyl-20(S)-protopanaxadiol] has a paw volume ([1]; 10 mg/kg p.o. qd 3 days, 0h (before carrageenan)) of 1.60±0.13, a paw edema [1, 5] of 61.02±11.75% and a paw volume [1, 5] of 2.57±0.14. The edema inhibition [1, 5] was 5.06%, the paw edema [1, 6] was 51.30±10.45% and the paw volume [1, 6] was 2.42±0.19. The edema inhibition [1, 6] was 17.74%, the paw edema [1, 7] was 34.69±9.89% and the paw volume [1, 7] was 2.15±0.16. For the same compound, the edema inhibition [1, 7] was 32.99%, the paw edema [1, 8] was 27.53±8.13% and the paw volume [1, 8] was 2.03±0.08. It also gave an edema inhibition [1, 8] of 29.97%, a paw volume ([1]; 20 mg/kg p.o. qd 3 days, 0h (before carrageenan)) of 1.62±0.13 and a paw edema [1, 9] of 52.64±19.00%. The paw volume [1, 9] was 2.45±0.16, the edema inhibition [1, 9] was 18.10% and the paw edema [1, 10] was 43.25±16.04%. The paw volume [1, 10] was 2.30±0.11, the edema inhibition [1, 10] was 30.65% and the paw edema [1, 11] was 31.96±15.31%. It also gave a paw volume [1, 11] of 2.12±0.08, an edema inhibition [1, 11] of 38.25% and a paw edema [1, 12] of 24.52±13.39%. For the same compound, the paw volume [1, 12] was 2.00±0.09, the edema inhibition [1, 12] was 37.62% and the “DSC onset of the decomposition endotherm (thermodynamical stability)” value [2] was 267.5 °C. The “AUC(0-t)” value ([3]; female rats) was 2017.26 ng·h/mL and 2120.78 ng·h/mL and 2470.06 ng·h/mL, the “AUC(0-∞)” value ([3]; female rats) was 2050.82 ng·h/mL and 2124.00 ng·h/mL and 2473.25 ng·h/mL and the CLz/F ([3]; female rats) was 162 mL/min/kg and 157 mL/min/kg and 135 mL/min/kg. The Cmax ([3]; female rats) was 440.01 ng/mL and 325.66 ng/mL and 594.33 ng/mL, the Vz/F ([3]; female rats) was 56.64 L/kg and 34.89 L/kg and 29.88 L/kg and the “AUC(0-t)” value ([3]; male rats) was 762.48 ng·h/mL and 1612.79 ng·h/mL and 1074.22 ng·h/mL. For the same compound, the “AUC(0-∞)” value ([3]; male rats) was 762.82 ng·h/mL and 1709.08 ng·h/mL and 1092.09 ng·h/mL, the CLz/F ([3]; male rats) was 437 mL/min/kg and 195 mL/min/kg and 305.2 mL/min/kg and the Cmax ([3]; male rats) was 168.60 ng/mL and 425.66 ng/mL and 183.98 ng/mL. For the same compound, the t1/2z ([3]; male rats) was 2.87 h and 3.98 h and 2.06 h, the t1/2z ([4]; female rats, p.o. 20 mg/kg, individual rats 1-3) was 2.57 h and 2.56 h and the “AUC(0–t)” value [4, 13] was 2202.7 ± 237.26 ng·h/mL. For the same compound, the “AUC(0–∞)” value [4, 13] was 2216.0 ± 225.74 ng·h/mL, the CLz/F [4, 13] was 152 ± 14.7 mL/min/kg and the Cmax [4, 13] was 453.33 ± 134.83 ng/mL and 453.3 ± 134.8 ng/mL. It also gave a Vz/F [4, 13] of 40.5 ± 14.2 L/kg, a t1/2z [4, 13] of 3.0 ± 0.84 h and a bioavailability ([4]; female, Sprague-Dawley, rat, plasma, po, female rats) of 6.84%. For the same compound, the half-life ([4]; female, Sprague-Dawley, rat, plasma, po, female rats, p.o. 20 mg/kg, individual rats 1-3) was 4.03 h, the AUC(0-inf) [4, 14] was 2220 ± 226 ng·h/mL and the Vd/F [4, 14] was 40.5 ± 14.2 L/kg. For the same compound, the half-life [4, 14] was 3.05 ± 0.84 h, the Vz/F ([4]; male rats, p.o. 20 mg/kg, individual rats 1-3) was 77.79 L/kg and 48.49 L/kg and 105.00 L/kg and the “AUC(0–t)” value [4, 15] was 1149.8 ± 430.17 ng·h/mL. The “AUC(0–∞)” value [4, 15] was 1188.0 ± 480.37 ng·h/mL, the CLz/F [4, 15] was 312 ± 121 mL/min/kg and the Cmax [4, 15] was 259.4 ± 144.2 ng/mL. The Vz/F [4, 15] was 77.1 ± 28.3 L/kg, the t1/2z [4, 15] was 3.0 ± 0.96 h and the bioavailability ([4]; male, Sprague-Dawley, rat, plasma, po, male rats) was 3.92%. For the same compound, the AUC(0-t) [4, 16] was 1150 ± 430 ng·h/mL, the CL/F ([4]; male, Sprague-Dawley, rat, plasma, po, male rats, p.o. 20 mg/kg, mean ± SD (n = 3), read-out: CLz/F (converted)) was 312 mL/min/kg and the Cmax ([4]; male, Sprague-Dawley, rat, plasma, po, male rats, p.o. 20 mg/kg, mean ± SD (n = 3), read-out: Cmax) was 259 ± 144 ng/mL. The Vd/F [4, 16] was 77.1 ± 28.3 L/kg and the half-life [4, 16] was 2.97 ± 0.96 h.

Source: PMC8037814, “Polymorphic Characterization, Pharmacokinetics, and Anti-Inflammatory Activity of Ginsenoside Compound K Polymorphs” (Molecules, 2021)
